{
  "source": "ChEMBL document CHEMBL4152259",
  "about": "“Benzoxazinone-containing 3,5-dimethylisoxazole derivatives as BET bromodomain inhibitors for treatment of castration-resistant prostate cancer” (Eur J Med Chem, 2018)",
  "key": {"LNCaP": {"tested_on": "LNCaP", "test": "Antiproliferative activity against human LNCAP cells", "format": "functional, cell-based"}, "Homo sapiens [1]": {"species": "Homo sapiens", "test": "Selectivity ratio of IC50 for inhibition of His6-tagged human CREBBP (R1081 to G1197 residues) expressed in Escherichia coli BL21(DE3) by AlphaScreen assay to IC50 for inhibition of His6-tagged human BRD4 bromodomain-1 (N44 to E168 residues) expressed in Escherichia coli BL21(DE3) by AlphaScreen assay"}, "LNCaP C4-2B": {"tested_on": "LNCaP C4-2B", "test": "Inhibition of colony formation in human C4-2B cells after 14 days by crystal violet staining based assay", "format": "functional, cell-based"}, "Homo sapiens [2]": {"species": "Homo sapiens", "test": "Inhibition of BET bromodomain in human LNCAP cells assessed as reduction in c-Myc mRNA level at 1 uM after 48 hrs by qPCR assay", "format": "cell-based"}, "VCaP": {"tested_on": "VCaP", "test": "Inhibition of BET bromodomain in human VCaP cells assessed as reduction in c-Myc mRNA level at 1 uM after 48 hrs by qPCR assay", "format": "cell-based"}, "Homo sapiens [3]": {"species": "Homo sapiens", "test": "Inhibition of BET bromodomain in human LNCAP cells assessed as reduction in PSA mRNA level at 1 uM after 48 hrs by qPCR assay", "format": "cell-based"}, "Homo sapiens [4]": {"species": "Homo sapiens", "test": "Inhibition of BET bromodomain in human LNCAP cells assessed as reduction in TMPRSS2 mRNA level at 1 uM after 48 hrs by qPCR assay", "format": "cell-based"}, "Homo sapiens [5]": {"species": "Homo sapiens", "test": "Inhibition of BET bromodomain in human LNCAP cells assessed as reduction in full length AR mRNA level at 1 uM after 48 hrs by qPCR assay", "format": "cell-based"}, "Homo sapiens [6]": {"species": "Homo sapiens", "test": "Inhibition of BET bromodomain in human 22Rv1 cells assessed as reduction in TMPRSS2 mRNA level at 1 uM after 48 hrs by qPCR assay", "format": "cell-based"}, "Homo sapiens [7]": {"species": "Homo sapiens", "test": "Inhibition of BET bromodomain in human 22Rv1 cells assessed as reduction in ERG mRNA level at 1 uM after 48 hrs by qPCR assay", "format": "cell-based"}, "Homo sapiens [8]": {"species": "Homo sapiens", "test": "Inhibition of BET bromodomain in human LNCAP cells assessed as reduction in ERG mRNA level at 1 uM after 48 hrs by qPCR assay", "format": "cell-based"}, "Homo sapiens [9]": {"species": "Homo sapiens", "test": "Inhibition of BET bromodomain in human LNCAP cells harboring pPSA-Luc/pRenialla-Luc assessed as reduction in PSA mRNA level after 24 hrs by luciferase reporter gene assay", "format": "cell-based"}, "Homo sapiens [10]": {"species": "Homo sapiens", "test": "Inhibition of BET bromodomain in human 22Rv1 cells assessed as full length AR protein level at 1 uM after 48 hrs by Western blot assay (reference value: 1)", "format": "cell-based"}, "Homo sapiens [11]": {"species": "Homo sapiens", "test": "Inhibition of BET bromodomain in human 22Rv1 cells assessed as full length AR protein level at 4 uM after 48 hrs by Western blot assay (reference value: 1)", "format": "cell-based"}, "Homo sapiens [12]": {"species": "Homo sapiens", "test": "Inhibition of BET bromodomain in human 22Rv1 cells assessed as full length AR protein level at 16 uM after 48 hrs by Western blot assay (reference value: 1)", "format": "cell-based"}, "Homo sapiens [13]": {"species": "Homo sapiens", "test": "Inhibition of BET bromodomain in human 22Rv1 cells assessed as AR-varient protein level at 1 uM after 48 hrs by Western blot assay (reference value: 1)", "format": "cell-based"}, "Homo sapiens [14]": {"species": "Homo sapiens", "test": "Inhibition of BET bromodomain in human 22Rv1 cells assessed as AR-varient protein level at 4 uM after 48 hrs by Western blot assay (reference value: 1)", "format": "cell-based"}, "Homo sapiens [15]": {"species": "Homo sapiens", "test": "Inhibition of BET bromodomain in human 22Rv1 cells assessed as AR-varient protein level at 16 uM after 48 hrs by Western blot assay (reference value: 1)", "format": "cell-based"}, "CWR22R [16]": {"tested_on": "CWR22R", "test": "Antimigratory activity against human 22Rv1 cells at 1 uM after 48 hrs by transwell assay relative to control", "format": "functional"}, "CWR22R [17]": {"tested_on": "CWR22R", "test": "Anti-invasive activity against human 22Rv1 cells at 1 uM after 48 hrs by crystal violet staining based matrigel-mediated Boyden chamber assay relative to control", "format": "functional"}, "[18]": {"test": "Cmax in Sprague-Dawley rat at 2 mg/kg, iv administered as single dose", "format": "ADME, organism-based", "design": "dose 2 mg/kg, route intravenous", "conditions": "in vivo"}, "[19]": {"test": "Tmax in Sprague-Dawley rat at 2 mg/kg, iv administered as single dose", "format": "ADME, organism-based", "conditions": "in vivo"}, "[20]": {"test": "AUC (0 to infinity) in Sprague-Dawley rat at 2 mg/kg, iv administered as single dose", "format": "ADME, organism-based", "design": "dose 2 mg/kg, route intravenous, time infinity", "conditions": "in vivo"}, "[21]": {"test": "AUC (0 to infinity) in Sprague-Dawley rat at 10 mg/kg, po administered as single dose", "format": "ADME, organism-based", "design": "dose 10 mg/kg, route oral, time infinity", "conditions": "in vivo"}, "[22]": {"test": "Half life in Sprague-Dawley rat at 2 mg/kg, iv administered as single dose", "format": "ADME, organism-based", "conditions": "in vivo"}, "[23]": {"test": "Half life in Sprague-Dawley rat at 10 mg/kg, po administered as single dose", "format": "ADME, organism-based", "conditions": "in vivo"}, "[24]": {"test": "Volume of distribution at steady state in Sprague-Dawley rat at 2 mg/kg, iv administered as single dose", "format": "ADME, organism-based", "conditions": "in vivo, read-out: Vdss"}, "[25]": {"test": "Oral bioavailability in Sprague-Dawley rat at 10 mg/kg administered as single dose", "format": "ADME, organism-based", "conditions": "in vivo"}, "CWR22R [26]": {"tested_on": "CWR22R", "test": "Antitumor activity against human 22Rv1 cells xenografted in C.B-17/IcrHsd-Prkdc scid mouse assessed as tumor growth inhibition at 50 mg/kg, ip administered 5 times per week relative to control", "format": "functional", "conditions": "22Rv1, ip, read-out: TGI"}},
  "note": "Calls of active or inactive are those of the source. The rule behind the calls is not given here.",
  "data": [
    {"smiles": "Cc1sc2c(c1C)C(c1ccc(Cl)cc1)=N[C@@H](CC(=O)OC(C)(C)C)c1nnc(C)n1-2", "values": [
      {"measurement": "IC50", "setting": "LNCaP", "value": 110, "unit": "nM"}
    ]},
    {"smiles": "Cc1noc(C)c1-c1ccc2c(c1)O[C@H](CC1CC1)C(=O)N2", "values": [
      {"measurement": "Ratio IC50", "setting": "Homo sapiens [1]", "value": 25},
      {"measurement": "inhibition", "setting": "LNCaP C4-2B", "value": "Dose-dependent effect"},
      {"measurement": "inhibition", "setting": "Homo sapiens [2]", "value": "Active"},
      {"measurement": "inhibition", "setting": "VCaP", "value": "Active"},
      {"measurement": "inhibition", "setting": "Homo sapiens [3]", "value": "Active"},
      {"measurement": "inhibition", "setting": "Homo sapiens [4]", "value": "Active"},
      {"measurement": "inhibition", "setting": "Homo sapiens [5]", "value": "Active"},
      {"measurement": "inhibition", "setting": "Homo sapiens [6]", "value": "Active"},
      {"measurement": "inhibition", "setting": "Homo sapiens [7]", "value": "Active"},
      {"measurement": "inhibition", "setting": "Homo sapiens [8]", "value": "Active"},
      {"measurement": "inhibition", "setting": "Homo sapiens [9]", "value": "Dose-dependent effect"},
      {"measurement": "fold change (FC)", "setting": "Homo sapiens [10]", "value": 0.43},
      {"measurement": "fold change (FC)", "setting": "Homo sapiens [11]", "value": 0.4},
      {"measurement": "fold change (FC)", "setting": "Homo sapiens [12]", "value": 0.09},
      {"measurement": "fold change (FC)", "setting": "Homo sapiens [13]", "value": 0.83},
      {"measurement": "fold change (FC)", "setting": "Homo sapiens [14]", "value": 0.45},
      {"measurement": "fold change (FC)", "setting": "Homo sapiens [15]", "value": 0.06},
      {"measurement": "Activity", "setting": "CWR22R [16]", "value": 27, "unit": "%"},
      {"measurement": "Activity", "setting": "CWR22R [17]", "value": 57, "unit": "%"},
      {"measurement": "Cmax", "setting": "[18]", "value": 1350, "unit": "ng/mL"},
      {"measurement": "Tmax", "setting": "[19]", "value": 4.8, "unit": "min"},
      {"measurement": "AUC(0-inf)", "setting": "[20]", "value": 997, "unit": "ng·h/mL"},
      {"measurement": "AUC(0-inf)", "setting": "[21]", "value": 1460, "unit": "ng·h/mL"},
      {"measurement": "half-life", "setting": "[22]", "value": 48, "unit": "min"},
      {"measurement": "half-life", "setting": "[23]", "value": 42, "unit": "min"},
      {"measurement": "Vd", "setting": "[24]", "value": 1.6, "unit": "L/kg"},
      {"measurement": "bioavailability", "setting": "[25]", "value": 29.3, "unit": "%"},
      {"measurement": "inhibition in vivo at 50 mg/kg", "setting": "CWR22R [26]", "value": 70, "unit": "%"}
    ]}
  ]
}
